Test results taken from ChEMBL document CHEMBL5678816, “A Next-Generation TRK Kinase Inhibitor Overcomes Acquired Resistance to Prior TRK Kinase Inhibition in Patients with TRK Fusion-Positive Solid Tumors” (Cancer Discov, 2017).
Activity calls are given as the source filed them. No cut-off for these calls is given here.

Columns and labels:
[1] = target: Homeodomain-interacting protein kinase 3 (Homo sapiens) (UniProt Q9H422); experiment: Inhibition of HIPK3 (unknown origin) at 1 uM in presence of ATP relative to control; values are per cent of control
[2] = target: Tyrosine-protein kinase JAK2 (Homo sapiens) (UniProt O60674); experiment: Inhibition of JAK2 (unknown origin) at 1 uM in presence of ATP relative to control; values are per cent of control
[3] = system: MDA-MB-453; experiment: Inhibition of cell proliferation in human MDA-MB-453 cells upto 10 umol/L incubated for 72 hrs by DAPI staining based analysis; assay type: functional; details: dose <= 10.0 µmol/L
[4] = system: SCC-25; experiment: Inhibition of cell proliferation in human SCC-25 cells upto 10 umol/L incubated for 72 hrs by DAPI staining based analysis; assay type: functional; details: dose <= 10.0 µmol/L
[5] = system: SH-4; experiment: Inhibition of cell proliferation in human SH-4 cells upto 10 umol/L incubated for 72 hrs by DAPI staining based analysis; assay type: functional; details: dose <= 10.0 µmol/L
[6] = target: Cyclin-dependent kinase 1/cyclin B1 (Homo sapiens) (UniProt P06493+P14635); experiment: Inhibition of CDK1/cyclinB (unknown origin) at 1 uM in presence of ATP relative to control; values are per cent of control
[7] = system: HT-1376; experiment: Inhibition of cell proliferation in human HT-1376 cells upto 10 umol/L incubated for 72 hrs by DAPI staining based analysis; assay type: functional; details: dose <= 10.0 µmol/L
[8] = target: Protein kinase C theta type (Homo sapiens) (UniProt Q04759); experiment: Inhibition of PKCtheta (unknown origin) at 1 uM in presence of ATP relative to control; values are per cent of control
[9] = system: CAMA-1; experiment: Inhibition of cell proliferation in human CAMA-1 cells upto 10 umol/L incubated for 72 hrs by DAPI staining based analysis; assay type: functional; details: dose <= 10.0 µmol/L
[10] = target: cAMP-dependent protein kinase catalytic subunit alpha (Homo sapiens) (UniProt P17612); experiment: Inhibition of PKAC-alpha (unknown origin) at 1 uM in presence of ATP relative to control; values are per cent of control
[11] = target: Serine/threonine-protein kinase Chk2 (Homo sapiens) (UniProt O96017); experiment: Inhibition of CHK2 (unknown origin) at 1 uM in presence of ATP relative to control; values are per cent of control
[12] = system: U138-MG; experiment: Inhibition of cell proliferation in human U138-MG cells upto 10 umol/L incubated for 72 hrs by DAPI staining based analysis; assay type: functional; details: dose <= 10.0 µmol/L
[13] = target: Tyrosine-protein kinase JAK3 (Homo sapiens) (UniProt P52333); experiment: Inhibition of JAK3 (unknown origin) at 1 uM in presence of ATP relative to control; values are per cent of control
[14] = target: Rho-associated protein kinase 1 (Homo sapiens) (UniProt Q13464); experiment: Inhibition of ROCK-I (unknown origin) at 1 uM in presence of ATP relative to control; values are per cent of control
[15] = target: Casein kinase I isoform delta (Homo sapiens) (UniProt P48730); experiment: Inhibition of CK1delta (unknown origin) at 1 uM in presence of ATP relative to control; values are per cent of control
[16] = system: SJRH30; experiment: Inhibition of cell proliferation in human SJRH30 cells upto 10 umol/L incubated for 72 hrs by DAPI staining based analysis; assay type: functional; details: dose <= 10.0 µmol/L
[17] = target: Ribosomal protein S6 kinase alpha-6 (Homo sapiens) (UniProt Q9UK32); experiment: Inhibition of Rsk4 (unknown origin) at 1 uM in presence of ATP relative to control; values are per cent of control
[18] = system: SK-MEL-28; experiment: Inhibition of cell proliferation in human SK-MEL-28 cells upto 10 umol/L incubated for 72 hrs by DAPI staining based analysis; assay type: functional; details: dose <= 10.0 µmol/L
[19] = target: Tyrosine-protein kinase FRK (Homo sapiens) (UniProt P42685); experiment: Inhibition of PTK5 (unknown origin) at 1 uM in presence of ATP relative to control; values are per cent of control
[20] = system: KM12; experiment: Antitumor activity against human KM12 cells harboring TPM3-TRKA fusion protein xenografted in nu/nu NCr mouse assessed as inhibition of tumor growth at 30 to 300 mg/kg, po administered twice daily for 11 days; assay type: functional, organism-based; details: dose 30-300 mg/kg, time 11.0 day
[21] = Inhibition of N-terminal 6His-tagged TRKC G696A mutant (506 to 829 residues) (unknown origin) expressed in Escherichia coli incubated for 60 mins by [gamma-33P]-ATP based TopCount NXT liquid scintillation assay; parameters: species or system Homo sapiens
[22] = target: Tyrosine-protein kinase Fer (Homo sapiens) (UniProt P16591); experiment: Inhibition of Fer (unknown origin) at 1 uM in presence of ATP relative to control; values are per cent of control
[23] = target: Casein kinase I isoform gamma-1 (Homo sapiens) (UniProt Q9HCP0); experiment: Inhibition of CK1gamma1 (unknown origin) at 1 uM in presence of ATP relative to control; values are per cent of control
[24] = target: Ephrin type-A receptor 5 (Homo sapiens) (UniProt P54756); experiment: Inhibition of EphA5 (unknown origin) at 1 uM in presence of ATP relative to control; values are per cent of control
[25] = target: Casein kinase I isoform gamma-3 (Homo sapiens) (UniProt Q9Y6M4); experiment: Inhibition of CK1gamma3 (unknown origin) at 1 uM in presence of ATP relative to control; values are per cent of control
[26] = target: Ephrin type-A receptor 8 (Homo sapiens) (UniProt P29322); experiment: Inhibition of EphA8 (unknown origin) at 1 uM in presence of ATP relative to control; values are per cent of control
[27] = system: SK-BR-3; experiment: Inhibition of cell proliferation in human SK-BR-3 cells upto 10 umol/L incubated for 72 hrs by DAPI staining based analysis; assay type: functional; details: dose <= 10.0 µmol/L
[28] = system: NCI-H520; experiment: Inhibition of cell proliferation in human NCI-H520 cells upto 10 umol/L incubated for 72 hrs by DAPI staining based analysis; assay type: functional; details: dose <= 10.0 µmol/L
[29] = system: CAL-27; experiment: Inhibition of cell proliferation in human CAL-27 cells upto 10 umol/L incubated for 72 hrs by DAPI staining based analysis; assay type: functional; details: dose <= 10.0 µmol/L
[30] = system: DMS-114; experiment: Inhibition of cell proliferation in human DMS-114 cells upto 10 umol/L incubated for 72 hrs by DAPI staining based analysis; assay type: functional; details: dose <= 10.0 µmol/L
[31] = target: Serine/threonine-protein kinase PAK 5 (Homo sapiens) (UniProt Q9P286); experiment: Inhibition of PAK5 (unknown origin) at 1 uM in presence of ATP relative to control; values are per cent of control

Ephrin type-A receptor 8 (Homo sapiens), sequence (P29322 whole entry): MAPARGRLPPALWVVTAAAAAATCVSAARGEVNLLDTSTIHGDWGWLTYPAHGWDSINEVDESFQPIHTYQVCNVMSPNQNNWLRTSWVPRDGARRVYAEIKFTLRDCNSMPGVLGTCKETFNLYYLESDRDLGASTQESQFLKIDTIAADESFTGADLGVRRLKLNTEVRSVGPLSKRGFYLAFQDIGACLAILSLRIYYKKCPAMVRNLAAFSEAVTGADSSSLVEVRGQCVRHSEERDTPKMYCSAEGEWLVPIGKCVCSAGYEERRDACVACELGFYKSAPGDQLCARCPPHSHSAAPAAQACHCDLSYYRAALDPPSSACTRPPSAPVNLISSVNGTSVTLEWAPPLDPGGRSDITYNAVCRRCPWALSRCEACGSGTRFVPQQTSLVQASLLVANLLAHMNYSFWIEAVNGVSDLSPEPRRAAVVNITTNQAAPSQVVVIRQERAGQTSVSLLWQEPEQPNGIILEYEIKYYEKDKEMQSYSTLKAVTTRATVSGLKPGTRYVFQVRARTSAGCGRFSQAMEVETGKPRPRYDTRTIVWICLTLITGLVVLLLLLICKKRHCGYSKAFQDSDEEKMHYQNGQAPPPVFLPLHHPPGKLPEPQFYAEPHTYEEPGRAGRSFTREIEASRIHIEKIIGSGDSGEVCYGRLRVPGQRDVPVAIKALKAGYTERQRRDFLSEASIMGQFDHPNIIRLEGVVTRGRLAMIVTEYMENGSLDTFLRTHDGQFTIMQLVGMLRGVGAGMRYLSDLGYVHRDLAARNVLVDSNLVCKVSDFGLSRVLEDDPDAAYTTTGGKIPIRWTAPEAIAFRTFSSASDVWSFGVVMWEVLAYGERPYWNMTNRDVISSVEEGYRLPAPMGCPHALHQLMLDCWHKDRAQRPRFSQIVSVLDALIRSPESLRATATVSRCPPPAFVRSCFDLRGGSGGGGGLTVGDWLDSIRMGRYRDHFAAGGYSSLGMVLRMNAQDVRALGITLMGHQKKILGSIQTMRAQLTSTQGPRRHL
Tyrosine-protein kinase Fer (Homo sapiens), sequence (P16591 whole entry, looked up, canonical isoform): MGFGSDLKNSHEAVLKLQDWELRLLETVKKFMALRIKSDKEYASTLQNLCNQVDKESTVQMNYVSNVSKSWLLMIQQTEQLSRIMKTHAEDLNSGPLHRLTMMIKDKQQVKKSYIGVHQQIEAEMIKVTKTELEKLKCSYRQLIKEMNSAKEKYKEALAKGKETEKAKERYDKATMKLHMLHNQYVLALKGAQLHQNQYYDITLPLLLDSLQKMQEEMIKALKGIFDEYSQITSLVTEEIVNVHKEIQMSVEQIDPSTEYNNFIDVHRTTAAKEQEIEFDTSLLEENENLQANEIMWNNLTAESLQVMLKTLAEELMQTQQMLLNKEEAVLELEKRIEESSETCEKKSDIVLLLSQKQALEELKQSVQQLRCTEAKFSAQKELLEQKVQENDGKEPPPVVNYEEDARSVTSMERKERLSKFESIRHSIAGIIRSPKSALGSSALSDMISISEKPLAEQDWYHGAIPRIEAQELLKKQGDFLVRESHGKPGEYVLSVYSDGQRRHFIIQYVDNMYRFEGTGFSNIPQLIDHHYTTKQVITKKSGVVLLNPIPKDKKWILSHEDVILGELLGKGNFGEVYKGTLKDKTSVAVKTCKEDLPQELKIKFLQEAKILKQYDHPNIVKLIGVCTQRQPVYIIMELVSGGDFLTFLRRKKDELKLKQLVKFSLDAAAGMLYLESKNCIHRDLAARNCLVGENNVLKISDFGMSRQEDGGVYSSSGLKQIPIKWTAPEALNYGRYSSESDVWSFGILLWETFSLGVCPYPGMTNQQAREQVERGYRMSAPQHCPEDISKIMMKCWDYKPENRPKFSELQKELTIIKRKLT
Ribosomal protein S6 kinase alpha-6 (Homo sapiens), sequence (Q9UK32 whole entry): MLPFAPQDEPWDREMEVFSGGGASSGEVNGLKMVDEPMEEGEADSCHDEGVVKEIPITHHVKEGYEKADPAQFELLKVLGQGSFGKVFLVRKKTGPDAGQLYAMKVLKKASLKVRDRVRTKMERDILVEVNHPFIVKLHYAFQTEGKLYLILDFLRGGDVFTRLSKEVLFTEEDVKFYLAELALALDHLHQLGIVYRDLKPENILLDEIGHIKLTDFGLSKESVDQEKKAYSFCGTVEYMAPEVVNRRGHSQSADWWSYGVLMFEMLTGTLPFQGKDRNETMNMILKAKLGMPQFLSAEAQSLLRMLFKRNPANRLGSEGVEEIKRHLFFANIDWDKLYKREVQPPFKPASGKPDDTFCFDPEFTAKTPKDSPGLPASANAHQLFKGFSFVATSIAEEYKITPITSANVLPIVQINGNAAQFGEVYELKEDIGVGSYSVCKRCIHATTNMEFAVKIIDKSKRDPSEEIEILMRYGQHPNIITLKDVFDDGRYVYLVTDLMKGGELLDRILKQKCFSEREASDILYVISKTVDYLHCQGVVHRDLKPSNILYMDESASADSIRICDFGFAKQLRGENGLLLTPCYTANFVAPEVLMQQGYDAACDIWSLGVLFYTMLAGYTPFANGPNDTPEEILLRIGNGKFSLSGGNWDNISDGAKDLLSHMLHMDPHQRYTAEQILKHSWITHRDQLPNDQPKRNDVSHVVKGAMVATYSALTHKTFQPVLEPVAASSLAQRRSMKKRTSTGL
Tyrosine-protein kinase FRK (Homo sapiens), sequence (P42685 whole entry, the tested form may be a part): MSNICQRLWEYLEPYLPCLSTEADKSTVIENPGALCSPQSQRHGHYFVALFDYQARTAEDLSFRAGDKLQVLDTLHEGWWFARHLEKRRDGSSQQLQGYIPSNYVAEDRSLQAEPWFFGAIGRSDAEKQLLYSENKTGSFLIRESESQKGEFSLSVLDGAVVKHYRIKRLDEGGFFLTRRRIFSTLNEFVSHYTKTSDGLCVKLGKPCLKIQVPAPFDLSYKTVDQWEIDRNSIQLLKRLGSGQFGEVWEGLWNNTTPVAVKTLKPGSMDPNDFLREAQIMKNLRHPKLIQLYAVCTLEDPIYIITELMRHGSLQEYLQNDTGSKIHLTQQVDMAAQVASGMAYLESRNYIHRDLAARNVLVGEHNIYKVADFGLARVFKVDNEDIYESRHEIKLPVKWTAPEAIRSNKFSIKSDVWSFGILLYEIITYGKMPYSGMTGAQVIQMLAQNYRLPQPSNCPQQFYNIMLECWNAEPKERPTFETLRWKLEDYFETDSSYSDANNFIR
Ephrin type-A receptor 5 (Homo sapiens), sequence (P54756 whole entry, canonical isoform): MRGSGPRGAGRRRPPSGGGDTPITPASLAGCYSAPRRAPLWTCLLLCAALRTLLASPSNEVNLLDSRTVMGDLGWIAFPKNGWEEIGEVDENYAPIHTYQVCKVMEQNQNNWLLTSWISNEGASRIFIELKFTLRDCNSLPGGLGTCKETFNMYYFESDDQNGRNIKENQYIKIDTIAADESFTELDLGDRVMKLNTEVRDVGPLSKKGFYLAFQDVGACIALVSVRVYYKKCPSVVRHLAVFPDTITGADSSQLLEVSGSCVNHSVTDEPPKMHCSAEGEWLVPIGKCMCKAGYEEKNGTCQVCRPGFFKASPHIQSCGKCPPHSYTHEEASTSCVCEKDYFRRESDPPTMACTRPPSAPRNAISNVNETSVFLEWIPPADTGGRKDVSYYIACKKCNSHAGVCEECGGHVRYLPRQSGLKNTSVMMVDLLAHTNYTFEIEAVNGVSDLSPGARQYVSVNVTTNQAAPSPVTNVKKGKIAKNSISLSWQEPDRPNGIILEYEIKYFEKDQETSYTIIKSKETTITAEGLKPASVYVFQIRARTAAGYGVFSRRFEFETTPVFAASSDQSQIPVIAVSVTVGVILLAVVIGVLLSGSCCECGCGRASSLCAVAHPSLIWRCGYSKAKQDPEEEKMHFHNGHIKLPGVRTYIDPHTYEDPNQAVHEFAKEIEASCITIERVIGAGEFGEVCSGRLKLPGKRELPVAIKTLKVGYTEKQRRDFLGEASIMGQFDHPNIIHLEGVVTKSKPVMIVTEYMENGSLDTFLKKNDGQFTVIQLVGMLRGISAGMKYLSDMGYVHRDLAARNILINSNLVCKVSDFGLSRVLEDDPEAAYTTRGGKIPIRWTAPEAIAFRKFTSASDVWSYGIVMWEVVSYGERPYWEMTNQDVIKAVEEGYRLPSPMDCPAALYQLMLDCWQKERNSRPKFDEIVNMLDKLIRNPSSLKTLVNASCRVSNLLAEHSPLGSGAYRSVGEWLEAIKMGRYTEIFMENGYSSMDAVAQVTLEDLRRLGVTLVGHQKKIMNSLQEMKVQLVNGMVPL
Casein kinase I isoform delta (Homo sapiens), sequence (P48730 whole entry, looked up, canonical isoform): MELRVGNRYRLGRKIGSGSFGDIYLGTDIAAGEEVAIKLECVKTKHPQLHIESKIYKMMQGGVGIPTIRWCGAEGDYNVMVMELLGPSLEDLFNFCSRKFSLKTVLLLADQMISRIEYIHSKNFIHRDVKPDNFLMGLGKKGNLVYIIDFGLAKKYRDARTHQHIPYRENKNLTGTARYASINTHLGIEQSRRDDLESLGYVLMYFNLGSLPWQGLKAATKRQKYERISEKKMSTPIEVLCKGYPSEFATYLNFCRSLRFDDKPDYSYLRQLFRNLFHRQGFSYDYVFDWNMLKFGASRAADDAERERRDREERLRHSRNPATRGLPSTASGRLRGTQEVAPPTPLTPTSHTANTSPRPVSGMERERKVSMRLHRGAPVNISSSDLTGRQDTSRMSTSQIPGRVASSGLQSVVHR
Casein kinase I isoform gamma-3 (Homo sapiens), sequence (Q9Y6M4 whole entry, looked up, canonical isoform): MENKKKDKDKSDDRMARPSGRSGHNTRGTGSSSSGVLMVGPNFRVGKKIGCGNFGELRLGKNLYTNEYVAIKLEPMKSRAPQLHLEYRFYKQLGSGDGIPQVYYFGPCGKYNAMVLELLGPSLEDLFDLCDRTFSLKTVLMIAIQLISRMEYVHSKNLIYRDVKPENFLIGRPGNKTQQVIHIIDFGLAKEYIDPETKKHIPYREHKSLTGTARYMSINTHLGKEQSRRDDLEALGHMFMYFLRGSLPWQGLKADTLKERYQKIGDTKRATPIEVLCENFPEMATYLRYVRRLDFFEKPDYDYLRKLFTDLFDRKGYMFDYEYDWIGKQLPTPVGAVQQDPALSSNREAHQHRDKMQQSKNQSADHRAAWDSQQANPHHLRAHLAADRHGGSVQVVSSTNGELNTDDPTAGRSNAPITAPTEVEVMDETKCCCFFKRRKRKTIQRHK

residual activity [1]: 105%
residual activity [2]: 37.5%
residual activity [6]: 102%
residual activity [8]: 108%
residual activity [10]: 109%
residual activity [11]: 99.5%
residual activity [13]: 103%
residual activity [14]: 105%
residual activity [15]: 110%
residual activity [17]: 127%
residual activity [19]: 87.5%
IC50 [21]: < 2.5 nM
residual activity [22]: 91%
residual activity [23]: 112%
residual activity [24]: 90%
residual activity [25]: 113%
residual activity [26]: 81.5%
residual activity [31]: 104%
SMILES: C[C@@H]1CCc2ncc(F)cc2[C@H]2CCCN2c2ccn3ncc(c3n2)C(=O)N1 [SELITRECTINIB]
inhibition [3]: inactive
inhibition [4]: inactive
inhibition [5]: inactive
inhibition [7]: inactive
inhibition [9]: inactive
inhibition [12]: inactive
inhibition [16]: inactive
inhibition [18]: inactive
Activity [20]: Active
inhibition [27]: inactive
inhibition [28]: inactive
inhibition [29]: inactive
inhibition [30]: inactive
